Data taken from PubChem BioAssay (NCI).
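In this assay, cells in 96-well plates receive the compound at five concentrations for 48 hours. Endpoints are linearly interpolated between the surrounding concentrations. The concentration for full growth arrest is given as TGI.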

Tests used:
Assay in all cases: NCI-60 cell line screen, 48 h
[1] = system: ACHN renal
[2] = system: NCI-H460 lung
[3] = system: NCI-H23 lung
[4] = system: SK-MEL-2 melanoma
[5] = system: RXF 393 renal
[6] = system: OVCAR-8 ovarian
[7] = system: NCI-H226 lung
[8] = system: K-562 leukemia
[9] = system: MALME-3M melanoma
[10] = system: NCI-H522 lung
[11] = system: UACC-257 melanoma
[12] = system: OVCAR-5 ovarian
[13] = system: SNB-19 CNS
[14] = system: CCRF-CEM leukemia
[15] = system: HCT-15 colon
[16] = system: BT-549 breast
[17] = system: EKVX NSCLC
[18] = system: COLO 205 colon
[19] = system: U251 CNS
[20] = system: IGROV1 ovarian
[21] = system: SR leukemia
[22] = system: LOX IMVI melanoma
[23] = system: HCT-116 colon
[24] = system: M14 melanoma
[25] = system: SK-MEL-28 melanoma
[26] = system: CAKI-1 renal
[27] = system: PC-3 prostate
[28] = system: HS 578T breast
[29] = system: A498 renal
[30] = system: HOP-92 NSCLC
[31] = system: MOLT-4 leukemia
[32] = system: SK-MEL-5 melanoma
[33] = system: HCC-2998 colon
[34] = system: A549 NSCLC
[35] = system: MDA-MB-435
[36] = system: SNB-75 CNS
[37] = system: UO-31 renal
[38] = system: 786-0 renal
[39] = system: T-47D breast
[40] = system: UACC-62 melanoma
[41] = system: RPMI-8226 leukemia
[42] = system: MCF7 breast
[43] = system: HL-60(TB) leukemia
[44] = system: SF-268 CNS
[45] = system: TK-10 renal
[46] = system: SN12C renal
[47] = system: NCI/ADR-RES ovarian
[48] = system: MDA-MB-231 breast
[49] = system: SW-620 colon
[50] = system: KM12 colon
[51] = system: HT29 colon
[52] = system: OVCAR-4 ovarian

C=C(C)[C@H]1C=C[C@@H](OC(C)=O)[C@@]2(COC(C)=O)[C@H](OC(=O)CCC)[C@H]3[C@@H](OC(C)=O)[C@@H](C)C[C@]3(O)C(=O)[C@@](C)(OC(C)=O)[C@H]12
TGI [1]: > 100 µM | TGI [2]: > 100 µM | TGI [3]: > 100 µM | TGI [4]: > 100 µM | TGI [5]: > 100 µM | TGI [6]: > 100 µM | TGI [7]: > 100 µM | TGI [8]: > 100 µM | TGI [9]: > 100 µM | TGI [10]: > 100 µM | TGI [11]: > 100 µM | TGI [12]: > 100 µM | TGI [13]: > 100 µM | TGI [14]: > 100 µM | TGI [15]: > 100 µM | TGI [16]: > 100 µM | TGI [17]: > 100 µM | TGI [18]: 65 µM | TGI [19]: > 100 µM | TGI [20]: > 100 µM | TGI [21]: > 100 µM | TGI [22]: > 100 µM | TGI [23]: > 100 µM | TGI [24]: > 100 µM | TGI [25]: > 100 µM | TGI [26]: > 100 µM | TGI [27]: > 100 µM | TGI [28]: > 100 µM | TGI [29]: > 100 µM | TGI [30]: 69.8 µM | TGI [31]: > 100 µM | TGI [32]: > 100 µM | TGI [33]: 86.5 µM | TGI [34]: > 100 µM | TGI [35]: 44.2 µM | TGI [36]: > 100 µM | TGI [37]: > 100 µM | TGI [38]: > 100 µM | TGI [39]: 89.7 µM | TGI [40]: > 100 µM | TGI [41]: 66.7 µM | TGI [42]: > 100 µM | TGI [43]: > 100 µM | TGI [44]: > 100 µM | TGI [45]: > 100 µM | TGI [46]: > 100 µM | TGI [47]: > 100 µM | TGI [48]: > 100 µM | TGI [49]: > 100 µM | TGI [50]: > 100 µM | TGI [51]: > 100 µM | TGI [52]: > 100 µM
